In patent publication US8114886B2, “Pyridylmethylsulfone derivative” (Daiichi Sankyo Company, Limited, priority 2005, dated 2012):

What was measured:
[1] = tested on: β-amyloid protein (Aβ) secreted by E35 cells (H4 cells with APP751 gene); assay: Screening system using E35 cells for inhibition of production/secretion of β-amyloid protein (sandwich ELISA of Aβ in culture medium); assay type: cell-based, human; conditions: Homo sapiens, 24 hours with compound, Aβ in culture supernatant by ELISA, read-out: Inhibitory Activity for Production of A(EC50)
Method: The activity of the compound inhibiting β-amyloid protein production was measured on E35 cells prepared by introducing APP751 gene, a gene of a human wild type β-amyloid protein precursor protein, to human glioma cells (H4 cells), by quantifying the amount of β-amyloid protein (Aβ) secreted to the culture medium by means of a sandwich type Enzyme-Linked Immunosorbent Assay (ELISA) method.
That is, E35 cells inoculated on a 96-well plate were cultured in an incubator at 37° C. which was maintained at equilibrium with 5% carbon dioxide, using Dulbecco's Modified Eagle's Medium containing inactivated 10% fetal bovine serum as the culture medium. After 24 hours from the inoculation, a test compound dissolved in a DMSO solution was added. The DMSO solution of the test compound was prepared at a concentration of 2000 times of the final concentration, such that the DMSO concentration in the culture medium would be 0.05%. After culturing for another 24 hours, the culture supernatant was recovered, and this was added to a 96-well plate for ELISA onto which a monoclonal antibody against Aβ, 25-1, was solid-phased. The plate was incubated at 4° C. for 16 to 20 hours. The plate was washed with phosphate buffer solution (pH 7.4), and then a biotinylated monoclonal antibody against Aβ, MA32-40, was added thereto. The plate was left to stand at 4° C. for 2 hours. The plate was washed again with phosphate buffer solution, and then alkaline phosphatase-conjugated streptavidin was added to conjugate streptavidin to biotin. Subsequently, the plate was washed with phosphate buffer solution. To this, Blue Phos (Kirkegaard & Perry Laboratories, Inc.) was added. After incubating the plate for an appropriate time, the reaction was terminated with an acid, and the absorbance for each well was measured. The amount of Aβ contained in the culture supernatant was determined from a calibration curve which was produced separately, and the amount was compared with that of control cells to which the compound was not added. Thus, the concentration at which 50% of the Aβ production is inhibited (EC50 value) was calculated. In addition, the 25-1 antibody and MA32-40 antibody used in ELISA were mouse monoclonal antibodies derived from the hybridoma cell clone lines, which were each produced and selected according to a standard method using Aβ25-35 and Aβ1-8 as antigens, respectively, and which specifically recognize their respective antigens. […]
The scores indicate ++++ for the case where EC50 was 5 nM or less; +++ for the case where EC50 was 5 to 50 nM; ++ for the case where EC50 was 50 to 500 nM; and + for the case where EC50 was 500 nM to 5 μM.

| Structure (SMILES) | EC50 [1] | melting point |
| --- | --- | --- |
| CNC(=O)c1cc(C)c(C(c2cc(F)ccc2F)S(=O)(=O)c2ccc(Cl)cc2)cn1 (centres unmarked) [Example 4, 5-[[(4-Chlorophenyl)sulfonyl](2,5-difluorophenyl)methyl]-N,4-dimethylpyridine-2-carboxamide] | ≤ 5 nM | 200 to 201 °C |
| Cc1cc(C(=O)N(C)C)ncc1C(c1cc(F)ccc1F)S(=O)(=O)c1ccc(Cl)cc1 (centres unmarked) [Example 5, 5-[[(4-Chlorophenyl)sulfonyl](2,5-difluorophenyl)methyl]-N,N,4-trimethylpyridine-2-carboxamide] | 50 to 500 nM | 207 to 208 °C |
| Cc1cc(C(N)=O)ncc1C(c1cc(F)ccc1F)S(=O)(=O)c1ccc(Cl)cc1 (centres unmarked) [Example 9, 5-[[(4-Chlorophenyl)sulfonyl](2,5-difluorophenyl)methyl]-4-methylpyridine-2-carboxamide] | ≤ 5 nM | 241 to 242 °C |
| CNC(=O)c1cc(C)c(C(c2cc(F)ccc2F)S(=O)(=O)c2ccc(F)cc2)cn1 (centres unmarked) [Example 13, 5-[(2,5-difluorophenyl)[(4-fluorophenyl)sulfonyl]methyl]-N, 4-dimethylpyridine-2-carboxamide] | ≤ 5 nM | 201 to 202 °C |
| CCN(C)C(=O)c1cc(C)c(C(c2cc(F)ccc2F)S(=O)(=O)c2ccc(F)cc2)cn1 (centres unmarked) [Example 18, 5-[(2,5-Difluorophenyl)[(4-fluorophenyl)sulfonyl]methyl]-N-ethyl-N,4-dimethylpyridine-2-carboxamide] | 50 to 500 nM | 165 to 167 °C |
| Cc1cc(C(=O)N(C)CCO)ncc1C(c1cc(F)ccc1F)S(=O)(=O)c1ccc(F)cc1 (centres unmarked) [Example 19, 5-[(2,5-Difluorophenyl)[(4-fluorophenyl)sulfonyl]methyl]-N-(2-hydroxyethyl)-N,4-dimethylpyridine-2-carboxamide] | 500 to 5000 nM | 123 to 125 °C |
| COc1ccc(S(=O)(=O)C(c2cnc(C(=O)NCCO)cc2C)c2cc(F)ccc2F)cc1 (centres unmarked) [Example 43, 5-[(2,5-Difluorophenyl)[(4-methoxyphenyl)sulfonyl]methyl]-N-(2-hydroxyethyl)-4-methylpyridine-2-carboxamide] | 5 to 50 nM | 134 to 135 °C |
| COc1ccc(S(=O)(=O)C(c2cnc(C(=O)NCCO)cc2C)c2cc(F)ccc2F)cc1F (centres unmarked) [Example 47, 5-[(2,5-Difluorophenyl)[(3-fluoro-4-methoxyphenyl)sulfonyl]methyl]-N-(2-hydroxyethyl)-4-methylpyridine-2-carboxamide] | 5 to 50 nM | 137 to 138 °C |
| Cc1cc(C(=O)NCCC[S+](C)[O-])ncc1C(c1cc(F)ccc1F)S(=O)(=O)c1ccc(F)cc1 (centres unmarked) [Example 73, 5-[(2,5-Difluorophenyl)[(4-fluorophenyl)sulfonyl]methyl]-4-methyl-N-[3-(methylsulfinyl)propyl]pyridine-2-carboxamide] | ≤ 5 nM | 170 to 173 °C |
| Cc1cc(C(=S)N(C)C)ncc1C(c1cc(F)ccc1F)S(=O)(=O)c1ccc(F)cc1 (centres unmarked) [Example 92, 5-[(2,5-Difluorophenyl)[(4-fluorophenyl)sulfonyl]methyl]-N,N,4-trimethylpyridine-2-carbothioamide] | – | 161 to 164 °C |
| Cc1cc(C(=O)NCCO)ncc1C(c1cc(F)ccc1F)S(=O)(=O)c1cc(F)cc(F)c1 (centres unmarked) [Example 100, 5-[(2,5-Difluorophenyl)[(3,5-difluorophenyl)sulfonyl]methyl]-N-(2-hydroxyethyl)-4-methylpyridine-2-carboxamide] | – | 82 to 84 °C |
| Cc1cc(C(=O)NCOC(=O)CO)ncc1C(c1cc(F)ccc1F)S(=O)(=O)c1ccc(F)cc1 (centres unmarked) [Example 109, [[[5-[(2,5-Difluorophenyl)[(4-fluorophenyl)sulfonyl]methyl]-4-methylpyridin-2-yl]carbonyl]amino]methyl hydroxyacetate] | – | 84 °C |
| Cc1cc(C(=O)NCOCCO)ncc1C(c1cc(F)ccc1F)S(=O)(=O)c1ccc(F)cc1 (centres unmarked) [Example 112, 5-[(2,5-Difluorophenyl)[(4-fluorophenyl)sulfonyl]methyl]-N-[(2-hydroxyethoxy)methyl]-4-methylpyridine-2-carboxamide] | – | 175 to 177 °C |
| Cc1cc(C(=O)NCOCc2cccnc2)ncc1C(c1cc(F)ccc1F)S(=O)(=O)c1ccc(F)cc1 (centres unmarked) [Example 113, 5-[(2,5-Difluorophenyl) [(4-fluorophenyl)sulfonyl]methyl]-4-methyl-N-[(pyridin-3-ylmethoxy)methyl]pyridine-2-carboxamide] | – | 121 to 123 °C |
| Cc1cc(C(=O)NCO)ncc1C(c1c(F)ccc(F)c1F)S(=O)(=O)c1ccc(F)c(F)c1 (centres unmarked) [Example 122, 5-[[(3,4-Difluorophenyl)sulfonyl](2,3,6-trifluorophenyl)methyl]-N-(hydroxymethyl)-4-methylpyridine-2-carboxamide] | – | 119 to 120 °C |
| Cc1cc(C(N)=O)ncc1C(c1c(F)ccc(F)c1F)S(=O)(=O)c1ccc2ccoc2c1 (centres unmarked) [Example 126, 5-[(1-Benzofuran-6-ylsulfonyl)(2,3,6-trifluorophenyl)methyl]-4-methylpyridine-2-carboxamide] | – | 237 to 240 °C |
| Cc1cc(C(=O)NCS)ncc1C(c1cc(F)ccc1F)S(=O)(=O)c1ccc(F)cc1 (centres unmarked) [Example 132, 5-[(2,5-Difluorophenyl)[(4-fluorophenyl)sulfonyl]methyl]-N-(mercaptomethyl)-4-methylpyridine-2-carboxamide] | – | 190 to 193 °C |
| Cc1cc(C(=O)N(C)CO)ncc1C(c1cc(F)ccc1F)S(=O)(=O)c1ccc(F)cc1 (centres unmarked) [Example 133, 5-[(2,5-Difluorophenyl)((4-fluorophenyl)sulfonyl)methyl]-N-(hydroxymethyl)-N,4-dimethylpyridine-2-carboxamide] | – | 184 to 186 °C |

Second part, the compound after the results:

| EC50 [1] | melting point | Structure (SMILES) |
| --- | --- | --- |
| 50 to 500 nM | 176 to 177 °C | Cc1cc(C(=O)N(C)C)ncc1C(c1cc(F)ccc1F)S(=O)(=O)c1ccc(F)cc1 (centres unmarked) [Example 14, 5-[(2,5-Difluorophenyl)[(4-fluorophenyl)sulfonyl]methyl]-N,N,4-trimethylpyridine-2-carboxamide] |
| ≤ 5 nM | 191 to 193 °C | CCNC(=O)c1cc(C)c(C(c2cc(F)ccc2F)S(=O)(=O)c2ccc(F)cc2)cn1 (centres unmarked) [Example 16, 5-[(2,5-Difluorophenyl)[(4-fluorophenyl)sulfonyl]methyl]-N-ethyl-4-methylpyridine-2-carboxamide] |
| ≤ 5 nM | 153 to 154 °C | Cc1cc(C(=O)NCCO)ncc1C(c1cc(F)ccc1F)S(=O)(=O)c1ccc(F)cc1 (centres unmarked) [Example 17, 5-[(2,5-Difluorophenyl)[(4-fluorophenyl)sulfonyl]methyl]-N-(2-hydroxyethyl)-4-methylpyridine-2-carboxamide] |
| – | 182 to 183 °C | CC(=O)NC(=O)c1cc(C)c(C(c2cc(F)ccc2F)S(=O)(=O)c2ccc(F)cc2)cn1 (centres unmarked) [Example 107, N-acetyl-5-[(2,5-difluorophenyl)[(4-fluorophenyl)sulfonyl]methyl]-4-methylpyridine-2-carboxamide] |
| – | 200 to 201 °C | Cc1cc(C(N)=O)ncc1C(c1c(F)ccc(F)c1F)S(=O)(=O)c1ccc(F)c(F)c1 (centres unmarked) [Example 121, 5-[[(3,4-Difluorophenyl)sulfonyl](2,3,6-trifluorophenyl)methyl]-4-methylpyridine-2-carboxamide] |
| – | 185 to 186 °C (dec.) | Cc1cc(C(=O)NCO)ncc1C(c1c(F)ccc(F)c1F)S(=O)(=O)c1ccc2ccoc2c1 (centres unmarked) [Example 127, 5-[(1-Benzofuran-6-ylsulfonyl)(2,3,6-trifluorophenyl)methyl]-N-(hydroxymethyl)-4-methylpyridine-2-carboxamide] |
| – | 190 to 192 °C | Cc1cc(C(=O)NCO)ncc1C(c1c(F)ccc(F)c1F)S(=O)(=O)c1ccc(C(F)(F)F)cc1 (centres unmarked) [Example 129, N-(hydroxymethyl)-4-methyl-5-[[[4-(trifluoromethyl)phenyl]sulfonyl](2,3,6-trifluorophenyl)methyl]pyridine-2-carboxamide] |
| – | 181 to 183 °C | Cc1cc(C(=O)NCO)ncc1C(c1c(F)ccc(F)c1F)S(=O)(=O)c1ccc(C(F)F)nc1 (centres unmarked) [Example 136, 5-[[[6-(Difluoromethyl)pyridin-3-yl]sulfonyl](2,3,6-trifluorophenyl)methyl]-N-(1-hydroxymethyl)-4-methylpyridine-2-carboxamide] |
